Read-outs that look alike come from different tables or passages of the source.
Assays:
[1] = Stability in human plasma; assay type: in vitro ADME; conditions: for Human Plasma Stability (HP) product / Human Plasma Stability (HP) t1/2: 37° C., TBS pH 7.5
Experimental: (§1) The in vitro metabolism and stability of separated diastereomers were determined in PLCE, MT-2 extract and human plasma. A biological sample listed below, 80 μL, was transferred into a screw-capped centrifuge tube and incubated at 37° C. for 5 min. A solution containing 0.2 mg/mL of the test compound in a suitable buffer, 20 μL, was added to the biological sample and mixed. The reaction mixture, 20 μL, was immediately sampled and mixed with 60 μL of methanol containing 0.015 mg/mL of 2-hydroxymethylnaphthalene as an internal standard for HPLC analysis. The sample was taken as the time-zero sample. Then, at specific time points, the reaction mixture, 20 μL, was sampled and mixed with 60 μl of methanol containing the internal standard. The mixture thus obtained was centrifuged at 15,000 G for 5 min and the supernatant was analyzed with HPLC under the conditions described below.
(§2) The biological samples evaluated are as follows, • (1) PLCE (porcine liver carboxyesterase from Sigma, 160 u/mg protein, 21 mg protein/mL) diluted 20 fold with PBS (phosphated-buffered saline). • (2) MT-2 cell extract was prepared from MT-2 cells according to the published procedure [A. Pompon, I. Lefebvre, J.-L. Imbach, S. Kahn, and D. Farquhar, “Antiviral Chemistry & Chemotherapy”, 5:91-98 (1994)] except for using HEPES buffer described below as the medium. • (3) Human plasma (pooled normal human plasma from George King Biomedical Systems, Inc.)
In the study for human plasma, the test compound was dissolved in TBS. TBS (tris-buffered saline, Sigma) contains 0.05 M Tris, 0.0027 M potassium chloride, and 0.138 M sodium chloride. pH 7.5 at 37° C.
(§3) The HPLC analysis was carried out under the following conditions.

[2] = Excretion and tissue distribution of radiolabelled GS-7340 in dogs; conditions: dogs, oral 10 mg-eq. PMPA/kg
Experimental: Plasma and peripheral blood mononuclear cells (PBMCs) were obtained over the 24-hr period. Urine and feces were cage collected over 24 hr. At 24 h after the dose, the animals were sacrificed and tissues removed for analysis. Total radioactivity in tissues was determined by oxidation and liquid scintillation counting.

[3] = Stability / hydrolysis in MT-2 cell extract; assay type: in vitro ADME; conditions: for MT-2 extract hydrolysis product: 37° C., HEPES buffer pH 7.4
Experimental: as §1, §2
In the study for MT-2 cell extracts, the test compound was dissolved in HEPES buffer. HEPES buffer contains 0.010 M HEPES, 0.05 M potassium chloride, 0.005 M magnesium chloride, and 0.005 M dl-dithiothreitol. pH 7.4 at 37° C.
as §3

[4] = PMPA metabolites in plasma, PBMCs and RBCs after 1 h incubation in human blood
Experimental: After 1 hour, plasma, red blood cells (RBCs) and peripheral blood mononuclear cells (PBMCs) were isolated and analyzed by HPLC with radiometric detection.
Met. Lower case “p” designates phosphorylation.

[5] = system: MT-2 cells; test: Cytotoxicity in MT-2 cells
[6] = system: HIV-1; test: In vitro anti-HIV-1 activity in MT-2 cells; assay type: cell-based; conditions: Table 5 (selected IC50 data from Table 4); read-out: HIV IC50
[7] = system: PLCE (porcine liver carboxyesterase); test: PLCE hydrolysis; assay type: in vitro ADME; conditions: 37° C., PBS pH 7.4
Experimental: as §1, §2
In the study for PLCE, the test compound was dissolved in PBS. PBS (phosphate-buffered saline, Sigma) contains 0.01 M phosphate, 0.0027 M potassium chloride, and 0.137 M sodium chloride. pH 7.4 at 37° C.
as §3

With CC(C)OC(=O)[C@H](C)N[P@](=O)(CO[C@H](C)Cn1cnc2c(N)ncnc21)Oc1ccccc1 (single isomer, unassigned) [GS-7340] the “Stability T ½ Human Plasma” value ([1]; human plasma) was 1.5 h, the “% Dose” value ([2]; Abdominal fat) was 0.00% and the Conc. ([2]; Abdominal fat) was 0.90 ug-eq/g. The “% Dose” value ([2]; Adrenal Gland) was 0.00%, the “% Dose” value ([2]; Axillary Lymph Nodes) was 0.01% and the “% Dose” value ([2]; Bile) was 0.22%. The “% Dose” value ([2]; Bone Marrow) was 0.00%, the “% Dose” value ([2]; Brain) was 0.00% and the Conc. ([2]; Brain) was “<LOD”. The “% Dose” value ([2]; Cerebrospinal Fluid) was 0.00%, the Conc. ([2]; Cerebrospinal Fluid) was 0.00 ug-eq/g and the “% Dose” value ([2]; Duodenum) was 0.44%. The “% Dose” value ([2]; Eye (L + R)) was 0.00%, the Conc. ([2]; Eye (L + R)) was 0.23 ug-eq/g and the “% Dose” value ([2]; Feces) was 0.19%. For the same compound, the “% Dose” value ([2]; Femoral Bone) was 0.00%, the Conc. ([2]; Femoral Bone) was 0.28 ug-eq/g and the “% Dose” value ([2]; Gall bladder) was 0.04%. The “% Dose” value ([2]; Heart) was 0.15%, the “% Dose” value ([2]; Ileum) was 0.16% and the “% Dose” value ([2]; Iliac Lymph Nodes) was 0.01%. The “% Dose” value ([2]; Inguinal Lymph Nodes) was 0.00%, the “% Dose” value ([2]; Jejunum) was 0.79% and the “% Dose” value ([2]; Lungs) was 0.34%. For the same compound, the “% Dose” value ([2]; Mesenteric Lymph Nodes) was 0.04%, the “% Dose” value ([2]; Pancreas) was 0.01% and the “% Dose” value ([2]; Pituitary Gland) was 0.00%. The Conc. ([2]; Pituitary Gland) was 1.80 ug-eq/g, the “% Dose” value ([2]; Prostate) was 0.00% and the “% Dose” value ([2]; Salivary Gland (L + R)) was 0.03%. The “% Dose” value ([2]; Skeletal Muscle) was 0.01%, the “% Dose” value ([2]; Skin) was 0.00% and the Conc. ([2]; Skin) was 0.95 ug-eq/g. The “% Dose” value ([2]; Spinal Cord) was 0.00%, the Conc. ([2]; Spinal Cord) was 0.04 ug-eq/g and the “% Dose” value ([2]; Spleen) was 0.17%. For the same compound, the “% Dose” value ([2]; Stomach) was 0.26%, the “% Dose” value ([2]; Testes (L + R)) was 0.02% and the “% Dose” value ([2]; Thyroid Gland) was 0.00%. For the same compound, the “% Dose” value ([2]; Whole Blood) was 0.16%, the Conc. ([2]; Whole Blood) was 0.20 ug-eq/g and the “Stability T ½ MT-2 Cell Extract” value ([3]; MT-2 cell extract) was 0.472 h. For the same compound, the “Metabolites (% of Total Peak Area): GS 7340 (intact)” value ([4]; Plasma/FP) was 84%, the “Total C-14 Recovered” value ([4]; Plasma/FP, 60 μg-eq) was 43.0 μg-eq and the “Metabolites (% of Total Peak Area): GS 7340 (intact)” value ([4]; RBC/FP) was 57%. The CC50 ([5]; Table 4) was no less than 40 µM and the CC50 ([5]; read-out: Cytotoxicity CC50, MT-2 cells, Table 1) was greater than 40 µM.
In the case of CCOC(=O)C(C)NP(=O)(COC(C)Cn1cnc2c(N)ncnc21)Oc1ccccc1 (single isomer, unassigned) [compound 1], the “Human Plasma Stability (HP) product” value [1] is reported as “Met. Y”, the “Human Plasma Stability (HP) t1/2” value [1] is reported as 2.47 h and the “MT-2 extract hydrolysis product” value [3] is reported as “Met. X & PMPA”. The IC50 [6] was 0.005 µM and the PLCE hydrolysis product [7] was “Met. X & PMPA”.
With CCOC(=O)C(C)NP(=O)(COC(C)Cn1cnc2c(N)ncnc21)Oc1ccccc1 (single isomer, unassigned) [compound 2] the “Human Plasma Stability (HP) product” value [1] was “Met. Y”, the “Human Plasma Stability (HP) t1/2” value [1] was 8.25 h and the “MT-2 extract hydrolysis product” value [3] was “Met. X & PMPA”. The IC50 [6] was 0.05 µM and the PLCE hydrolysis product [7] was “Met. X & PMPA”.
With CCOC(=O)C(CC)NP(=O)(COC(C)Cn1cnc2c(N)ncnc21)Oc1ccccc1 (single isomer, unassigned) [compound 6] the “Human Plasma Stability (HP) product” value [1] was “Met. Y”, the “Human Plasma Stability (HP) t1/2” value [1] was 4.28 h and the IC50 [6] was 0.03 µM. For the same compound, the PLCE hydrolysis product [7] was “Met. X”.

Reference: patent US7803788B2, “Prodrugs of phosphonate nucoleotide analogues” (Gilead Sciences, Inc., priority 2000, dated 2010)
